These results are taken from patent publication US20220089592A1, “IMIDAZO[1,2-A]PYRIDINYL DERIVATIVES AS IRAK4 INHIBITORS” (priority 2019, published 2022).

Each structure is given as a SMILES string. Structures can show the parent of a compound that is named as a salt.

This experiment has as its target T1, IRAK4 (Homo sapiens, UniProt Q9NWZ3).
T1 sequence (Q9NWZ3 1-460): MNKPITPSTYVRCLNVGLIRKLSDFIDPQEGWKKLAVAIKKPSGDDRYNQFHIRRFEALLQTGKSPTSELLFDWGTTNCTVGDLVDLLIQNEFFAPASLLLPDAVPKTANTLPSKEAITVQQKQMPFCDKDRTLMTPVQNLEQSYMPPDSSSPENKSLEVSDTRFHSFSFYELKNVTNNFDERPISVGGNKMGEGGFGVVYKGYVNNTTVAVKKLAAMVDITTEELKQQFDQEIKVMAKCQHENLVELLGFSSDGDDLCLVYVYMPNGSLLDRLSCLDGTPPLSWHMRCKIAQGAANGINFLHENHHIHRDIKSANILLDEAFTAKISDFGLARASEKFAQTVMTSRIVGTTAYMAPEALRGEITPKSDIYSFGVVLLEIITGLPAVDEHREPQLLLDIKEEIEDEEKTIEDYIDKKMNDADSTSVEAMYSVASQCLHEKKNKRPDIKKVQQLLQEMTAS
Briefly: 2-hour 1 mM ATP IRAK4 Biochemical assay (as above, but with 100 pM IRAK4 and 1 mM ATP). Particulars: IRAK4 MSD BIOCHEMICAL (1 mM ATP) IC50 (μM), 100 pM IRAK4, 2 hours. The protocol: The 2-hour 10 μM ATP Biochemical Assay employs a MesoScale Detection (MSD) format.
The activity is quenched with 11 μl of 70 mM EDTA, pH 8.
To detect the phosphorylated biotinylated peptide substrate, 30 μl of the quenched reaction mixture is added to equivalent wells of a 384 well streptavidin coated MesoScale plate (Meso Scale Discovery #L21SA-1). After a 1 hour incubation of the plate for 1 hour at room temperature with gentle mixing, the plate wells are washed 3 times with 50 mM Tris, pH 7.5, 150 mM NaCl, 0.02% Tween-20.
A 25 μl volume of 1:500 anti-P-Threonine Rabbit polyclonal Antibody plus 1:500 Goat-anti-Rabbit Sulfo Tag Antibody (Meso Scale Discovery R32AB-1) in 50 mM Tris, pH 7.5, 150 mM NaCl, 0.02% Tween-20 plus 2% BSA is then added to each well. After a 1-hour incubation of the plate for 1 hour at room temperature with gentle mixing, the plate wells are washed, 3 times with 50 mM Tris, pH 7.5, 150 mM NaCl, 0.02% Tween-20. A 40 μl volume of 2×MSD Read Buffer (Meso Scale Discovery R92TC-1) is added to each well, and the plate is read immediately in an MSD Plate Reader (Meso Scale Discovery).
The 2-hour 1 mM ATP IRAK4 Biochemical assay was performed as described above, but with 100 pM IRAK4 and 1 mM ATP.
`CCOc1cc(NC(=O)c2cccc(C(F)F)n2)cn2cc(C3CCCOC3)nc12` (single isomer, unassigned) [Example 285, 6-(difluoromethyl)-N-(8-ethoxy-2-(tetrahydro-2H-pyran-3-yl)imidazo[1,2-a]pyridin-6-yl)picolinamide]: the IC50 came to 0.006 µM.

`O=C(Nc1cn2cc(C3CCOCC3)nc2cc1OCCF)c1cccc(C(F)F)n1` [Example 188, 6-(difluoromethyl)-N-(7-(2-fluoroethoxy)-2-(tetrahydro-2H-pyran-4-yl)imidazo[1,2-a]pyridin-6-yl)picolinamide]: inhibition was half-maximal at 0.001 µM (IC50). Molecule `COc1ccccc1C(=O)Nc1cn2cc(C34COC(C)(C3)C4)nc2nc1OC(C)C` [Example 488, N-(7-isopropoxy-2-(1-methyl-2-oxabicyclo[2.1.1]hexan-4-yl)imidazo[1,2-a]pyrimidin-6-yl)-2-methoxybenzamide] had an IC50 of 0.002 µM. Molecule `CC(C)Oc1cc2nc(C34COC(C)(C3)C4)c(Cl)n2cc1NC(=O)c1cccc(C(F)F)n1` [Example 575, N-(3-chloro-7-isopropoxy-2-(1-methyl-2-oxabicyclo[2.1.1]hexan-4-yl)imidazo[1,2-a]pyridin-6-yl)-6-(difluoromethyl)picolinamide 2,2,2-trifluoroacetate] came in with an IC50 of 0.012 µM. Take `CC(C)Oc1nc2nc(C3C4COCC43)cn2cc1NC(=O)c1ccn(C(C)C)n1` (centres unmarked) [Example 501, N-(2-(3-oxabicyclo[3.1.0]hexan-6-yl)-7-isopropoxyimidazo[1,2-a]pyrimidin-6-yl)-1-isopropyl-1H-pyrazole-3-carboxamide hydrochloride]: the concentration for half-maximal inhibition (IC50) was 0.002 µM. In turn, `CCOc1nc(C(=O)Nc2cn3cc(C45COC(C)(C4)C5)nc3c(OC)n2)co1` [Example 440, 2-ethoxy-N-(8-methoxy-2-(1-methyl-2-oxabicyclo[2.1.1]hexan-4-yl)imidazo[1,2-a]pyrazin-6-yl)oxazole-4-carboxamide] registered an IC50 of 0.047 µM. On to `CC12CC(c3cn4cc(NC(=O)c5coc(C6CC6)n5)nc(OC5CCC5)c4n3)(CO1)C2` [Example 340, N-(8-cyclobutoxy-2-(1-methyl-2-oxabicyclo[2.1.1]hexan-4-yl)imidazo[1,2-a]pyrazin-6-yl)-2-cyclopropyloxazole-4-carboxamide], for which half-maximal inhibition (IC50) was put at 0.006 µM.

With `O=C(Nc1cn2cc(C3CCOCC3)nc2cc1C(F)(F)F)c1cccc(C(F)F)n1` [Example 312, 6-(difluoromethyl)-N-(2-(tetrahydro-2H-pyran-4-yl)-7-(trifluoromethyl)imidazo[1,2-a]pyridin-6-yl)picolinamide], half-maximal inhibition (IC50) required 0.052 µM. The molecule `CCCOc1nc(NC(=O)c2cccc(C(F)F)n2)cn2cc(C34COC(C)(C3)C4)nc12` [Example 574, 6-(difluoromethyl)-N-(2-(1-methyl-2-oxabicyclo[2.1.1]hexan-4-yl)-8-propoxyimidazo[1,2-a]pyrazin-6-yl)picolinamide] returned an IC50 of 0.002 µM. Regarding `COCCCc1cn2cc(NC(=O)c3cccc(C(F)F)n3)cc(OC)c2n1` [Example 282, 6-(difluoromethyl)-N-(8-methoxy-2-(3-methoxypropyl)imidazo[1,2-a]pyridin-6-yl)picolinamide], the midpoint of inhibition, the IC50, lay at 0.007 µM.

For the molecule `CCOc1nc2nc(C3CCOCC3)cn2cc1NC(=O)c1cccc2c1OCC2` [Example 343, N-(7-ethoxy-2-(tetrahydro-2H-pyran-4-yl)imidazo[1,2-a]pyrimidin-6-yl)-2,3-dihydrobenzofuran-7-carboxamide], the midpoint of inhibition, the IC50, lay at 0.004 µM. To `CC(C)Oc1nc(NC(=O)c2cccc3ccnn23)cn2cc(C34COC(C)(C3)C4)nc12` [Example 336, N-(8-Isopropoxy-2-(1-methyl-2-oxabicyclo[2.1.1]hexan-4-yl)imidazo[1,2-a]pyrazin-6-yl)pyrazolo[1,5-a]pyridine-7-carboxamide] belongs 0.003 µM. With `CCOc1ncccc1C(=O)Nc1cn2cc(C3CCOCC3)nc2c(OC)n1` [Example 459, 2-ethoxy-N-(8-methoxy-2-(tetrahydro-2H-pyran-4-yl)imidazo[1,2-a]pyrazin-6-yl)nicotinamide], the IC50 turned out to be 0.022 µM. As for `COc1nc(NC(=O)c2cccc(C(F)F)n2)cn2cc(C34CC(OC)(C3)C4)nc12` [Example 553, 6-(difluoromethyl)-N-(8-methoxy-2-(3-methoxybicyclo[1.1.1]pentan-1-yl)imidazo[1,2-a]pyrazin-6-yl)picolinamide 2,2,2-trifluoroacetate], half-maximal inhibition (IC50) required 0.011 µM. The same measure for `COc1cc(NC(=O)c2cccc(C(F)F)n2)cn2cc(C3CCCOC3)nc12` (single isomer, unassigned) [Example 270, 6-(difluoromethyl)-N-(8-methoxy-2-(tetrahydro-2H-pyran-3-yl)imidazo[1,2-a]pyridin-6-yl)picolinamide]: 0.003 µM. `CCOc1nc(NC(=O)c2cccc(C(F)F)n2)cn2cc(C3CCOCC3)nc12` [Example 475, 6-(difluoromethyl)-N-(8-ethoxy-2-(tetrahydro-2H-pyran-4-yl)imidazo[1,2-a]pyrazin-6-yl)picolinamide 2,2,2-trifluoroacetate] gave an IC50 of 0.008 µM. The molecule `CC(C)Oc1c(NC(=O)c2coc(C(F)F)n2)cn2cc(C34COC(C)(C3)C4)nc2c1F` [Example 430, 2-(difluoromethyl)-N-(8-fluoro-7-isopropoxy-2-(1-methyl-2-oxabicyclo[2.1.1]hexan-4-yl)imidazo[1,2-a]pyridin-6-yl)oxazole-4-carboxamide 2,2,2-trifluoroacetate] gave an IC50 of 0.008 µM. The same measure for `CCOc1cc(NC(=O)c2cccc(C(F)F)n2)cn2cc(C3CCCOC3)nc12` (single isomer, unassigned) [Example 286, 6-(difluoromethyl)-N-(8-ethoxy-2-(tetrahydro-2H-pyran-3-yl)imidazo[1,2-a]pyridin-6-yl)picolinamide]: 0.005 µM; for `COc1nc(NC(=O)c2cccc(C(F)F)n2)cn2cc(CCOC(F)(F)F)nc12` [Example 563, 6-(difluoromethyl)-N-(8-methoxy-2-(2-(trifluoromethoxy)ethyl)imidazo[1,2-a]pyrazin-6-yl)picolinamide 2,2,2-trifluoroacetate]: 0.046 µM; for `CCOc1cc2nc(C3CN(CC(F)F)C3)cn2cc1NC(=O)c1cccc(C(F)F)n1` [Example 78, N-(2-(1-(2,2-difluoroethyl)azetidin-3-yl)-7-ethoxyimidazo[1,2-a]pyridin-6-yl)-6-(difluoromethyl)picolinamide]: 0.001 µM. Consider `COc1nc(NC(=O)c2coc(C)n2)cn2cc(C34CCC(C)(C3)OC4)nc12` (centres unmarked) [Example 471, N-(8-methoxy-2-(1-methyl-2-oxabicyclo[2.2.1]heptan-4-yl)imidazo[1,2-a]pyrazin-6-yl)-2-methyloxazole-4-carboxamide 2,2,2-trifluoroacetate], for which the IC50 came out at 0.022 µM. For `CCOc1cc2nc(C3C4COCC43)cn2cc1NC(=O)c1csc(C(F)(F)F)n1` (centres unmarked) [Example 377, N-(2-(3-oxabicyclo[3.1.0]hexan-6-yl)-7-ethoxyimidazo[1,2-a]pyridin-6-yl)-2-(trifluoromethyl)thiazole-4-carboxamide 2,2,2-trifluoroacetate], the IC50 came to 0.001 µM. `CC(C)Oc1cc2nc(C3CCOCC3)cn2cc1NC(=O)c1ccn(C)n1` [Example 384, N-(7-isopropoxy-2-(tetrahydro-2H-pyran-4-yl)imidazo[1,2-a]pyridin-6-yl)-1-methyl-1H-pyrazole-3-carboxamide] yielded an IC50 of 0.004 µM.

What is called IC50 is the concentration needed to halve the response being measured. Read a high IC50 as weaker potency in that assay.
